# From paper PMC5960991 (Nature chemistry, 2017)
# Target: T1, NapT8 (Streptomyces sp. CNQ-525, UniProt A7KH30)
# T1 sequence (A7KH30 1-297): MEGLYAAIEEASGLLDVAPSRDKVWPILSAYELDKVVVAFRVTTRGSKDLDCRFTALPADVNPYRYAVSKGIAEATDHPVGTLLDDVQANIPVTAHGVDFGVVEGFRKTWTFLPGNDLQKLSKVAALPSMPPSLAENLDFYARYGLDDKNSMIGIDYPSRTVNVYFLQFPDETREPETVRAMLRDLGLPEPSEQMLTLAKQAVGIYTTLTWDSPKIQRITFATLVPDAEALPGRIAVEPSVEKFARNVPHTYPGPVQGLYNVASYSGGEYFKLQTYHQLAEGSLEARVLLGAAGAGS
# Experiment: reversed-phase HPLC turnover assay
# Assay type: biochemical
# Settings: 34 as prenyl acceptor; MgCl2
structure (smiles),measurement,value
CC(C)=CCOP(=O)(O)OP(=O)(O)O [dimethylallyl pyrophosphate],reversed-phase HPLC turnover assay,NapT8 was only active when the isoprenoid DMAPP was utilized
